Assays:
[1] = tested on: GPR83 and GPR83del with Gα16 (HEK293); assay: Intracellular calcium mobilization, Gα16-transfected HEK293 cells; format: cell-based, human; settings: 10 µM PEN, 100 µM carbachol, 100 µM ATP, Fluo4-AM fluorescence, duplicate, repeated at least two times
Description: (§1) As activation of many GPCRs is coupled to calcium mobilization from intracellular stores, GPR83 was probed for ligand-dependent calcium release. Wild-type HEK293 cells and HEK293 clones overexpressing either full-length GPR83 or the N-terminal deletion variant GPR83del were exposed to buffer or one of two independent synthesis batches (PEN #1 and PEN #2) of the neuropeptide PEN, while calcium indicator fluorescence was recorded. […] Calcium release was also tested in a second cell line, osteosarcoma U2OS cells, using various stably expressing clones. […] Therefore, HEK293 cells transfected with Gα16 were employed to investigate a potential GPR83-dependent calcium mobilization with PEN. […] A number of GPCRs show ligand-independent basal calcium activity. However, in an experiment comparing basal calcium levels in wild-type HEK293 cells and in HEK293 clones overexpressing four different variants of GPR83, they were not found to be different (Figure 2D).
(§2) Figure 2 Investigation of ligand-dependent and ligand-independent intracellular calcium mobilization. (A) Wild-type HEK293 cells and HEK293 cell clones overexpressing either GPR83 or the deletion variant GPR83del were incubated with either buffer or the specified ligand (10 µM PEN or co mix = 100 µM carbachol, 100 µM ATP, 40 µM dimaprit, or 50 µM ionomycin). (B) Calcium indicator fluorescence intensity traces over 60 s of various U2OS cell clones overexpressing untagged or HA-tagged GPR83 or the deletion variant GPR83del before and after the addition of buffer or ligand (co mix as in (A) or 50 µM ionomycin or 10 µM PEN). […]
(§3) Cells were seeded at 50,000 cells/well in a poly-D-lysine coated 96-well black well/clear bottom plate (BD Falcon, Franklin Lakes, NJ, USA) and cultured overnight. […] Fluorescence was recorded with the fluorescence imaging plate reader CellLux (Perkin Elmer, Waltham, MA, USA) simultaneously in all wells at an excitation wavelength of 488 nm and emission wavelength of 510 nm in 1.5 s intervals over a period of 4 min. Fluorescence data were generated in duplicate, and experiments were repeated at least two times.

[2] = tested on: ERK1/2 phosphorylation in HEK293 cells overexpressing GPR83 or GPR83del; assay: ERK1/2 phosphorylation (immunoblot), GPR83 cells; format: cell-based, human
Excerpt: Apart from G protein-mediated second messenger signaling via Ca^2+ and cAMP, GPCR stimulation may also lead to activation of β-arrestin and phosphorylation of extracellular signal-regulated kinases 1/2 (ERK1/2). Immunoblot analysis was employed to investigate ligand-dependent phosphorylation of ERK1/2 in HEK293 cells overexpressing GPR83 or the deletion variant GPR83del as well as in wild-type HEK293 cells.
Figure 4 Ligand-dependent phosphorylation of ERK1/2 and β-arrestin (TANGO) assay. (A) Immunoblot detection of phosphorylated (upper blot) and total (lower blot) ERK1/2 in lysates of HEK293 wild-type cells and in HEK293 cells overexpressing GPR83 or GPR83del. (B) Quantification (mean ± SD of n = 2 independent experiments) of chemiluminescent readout of the immunoblots shown in (A). (C) TANGO assay for ligand-induced β-arrestin activity in HTLA cells overexpressing GPR83 (relative light units, RLU). (D) TANGO assay for ligand-induced β-arrestin activity in HTLA cells overexpressing bradykinin receptor BDKBR2.
4.7. ERK1/2 Phosphorylation Assay
Effects of GPCR ligands on MAPK signaling were assessed with Western blot analysis of lysates from stimulated cells. The ERK1/2 activation assay was performed as described before. Briefly, 50,000 cells per well were seeded onto adherent 6-well plates and cultured until cells were 80% confluent. After incubation with ligands (10 µM PEN #1 and 100 ng/mL EGF or 200 nM PMA in 0.1% FCS/DMEM) for 15 min, cells were lysed using 200 µL/well cell lysis buffer (100 mM Tris-HCl pH 8.8, 1% SDS) and protease inhibitors (cOmplete, Roche, Basel, Switzerland) on ice for one hour. Immunolabeling was realized using the rabbit monoclonal primary antibody anti-phospho-ERK1/2 Thr^202/Tyr^204 (#4370, Cell Signaling Technologies, Danvers, MA, USA, 1:2000), or anti-total ERK1/2 (#05-1152; Millipore, Burlington, VT, USA; 1:2000), respectively. Blots were analyzed using densitometric quantification using Image Lab Software v4.1 (Bio-Rad).

[3] = tested on: GPR83; settings: cited from earlier work
Excerpt: G protein-coupled receptor 83 (GPR83), also termed glucocorticoid-induced receptor (GIR), GPR72, KIAA1540, or JP05, is a class A G protein-coupled receptor with predominant expression in the […] and proposed function in the regulation of food intake and in anxiety-like behavior [1, 2, 3]. […] A potential role of GPR83 in regulatory T cell development and function has not been confirmed. […] The present study was initiated to evaluate PEN as a ligand of GPR83. […] While one end of the peptide may be crucial for binding the receptor, an absolute requirement of both peptide termini to be free of another ...

[4] = tested on: GPR83 and deletion variant GPR83del (HEK293 clones; wild-type HEK293 as comparison); assay: Intracellular calcium mobilization, HEK293 cells; format: cell-based, human
Description: as §1, §2, §3

AADHDVGSELPPEGVLGALLRV [PEN, batch #1 synthesized, batch #2 purchased from Phoenix Pharmaceuticals]
calcium signal [1]: PEN did not
phosphorylation of ERK1/2 ([2]; 10 µM PEN #1, 100 ng/mL EGF or 200 nM PMA, 15 min, HEK293 overexpressing GPR83 or GPR83del as well as wild-type HEK293, n = 2 independent experiments): substantially induced phosphorylation of ERK1/2
phosphorylation of ERK1/2, GPR83 or GPR83del cells versus wild-type ([2]; 10 µM PEN #1, 15 min, n = 2): equally strong ERK1/2 phosphorylation in wild-type HEK293 cells as well as in HEK293 cells overexpressing GPR83 or GPR83del
ligand for GPR83 ([3]; 2016 proposal, ref [10]): serves as a distinct ligand for GPR83
GPR83 ligand and agonist ([3]; comparative evaluation, multiple assay systems, ref [16]): not PEN
activation of GPR83 ([3]; independent reports from two other labs, ref [12],[13]): supported activation of GPR83 by PEN
calcium signal ([4]; 10 µM PEN, co mix = 100 µM carbachol, 100 µM ATP, 40 µM dimaprit, 50 µM ionomycin, HEK293 wild-type, GPR83 or GPR83del clones, Fluo4-AM fluorescence, compared with buffer, duplicate, repeated at least two times): PEN did not
Ca2+ signal above background ([4]; two synthesis batches of PEN, confirmed in HEK293 and U2OS cells, full-length or truncated GPR83 (Figure 2A–C)): none of two synthesis batches of PEN from different sources was found to yield a signal above background

Reference: paper PMC10606834, “Is the Neuropeptide PEN a Ligand of GPR83?” (International Journal of Molecular Sciences, 2023)
